Our source for the activity coefficient values is the NIST ThermoML archive (doi:10.1021/acs.jced.7b00114).

Numbers after ± are expanded uncertainties.

This data set in a line: activity coefficient (dimensionless); of the first substance listed, at infinite dilution; xn = mol fraction of the nth substance listed. The settings on record: Liquid, Chemical equilibration / Heterogeneous equilibration, x1 = 0.

In the case of `O` [water] + Brc1ccccc1, the activity coefficient (298.15 K, 100 kPa) came out at 367 ± 33; the activity coefficient (303.15 K, 100 kPa) came out at 311 ± 28; the activity coefficient (308.15 K, 100 kPa) is 264 ± 24; the activity coefficient (313.15 K, 100 kPa) came to 226 ± 20; the activity coefficient (318.15 K, 100 kPa) came out at 189 ± 17; the activity coefficient (323.15 K, 100 kPa) came out at 164 ± 15.
As for `O` [water] + COc1ccccc1, the activity coefficient stood at 95.3 ± 8.3 (298.15 K, 100 kPa); 84.4 ± 7.3 (303.15 K, 100 kPa); 75.8 ± 6.6 (308.15 K, 100 kPa); 68.8 ± 6 (313.15 K, 100 kPa); 61.7 ± 5.3 (318.15 K, 100 kPa); 55.9 ± 4.8 (323.15 K, 100 kPa). In addition, for the setting “328.15 K, 100 kPa”, the activity coefficient was 50 ± 4.3.
In the case of `O` [water] + CCOc1ccccc1, the activity coefficient runs as follows: (298.15 K, 100 kPa) 110 ± 9.6; (303.15 K, 100 kPa) 97 ± 8.5; (308.15 K, 100 kPa) 87.3 ± 7.6; (313.15 K, 100 kPa) 77.7 ± 6.8; (318.15 K, 100 kPa) 69.9 ± 6.1; (323.15 K, 100 kPa) 62.7 ± 5.4.
For `O` [water] + FC(F)(F)c1ccccc1, the activity coefficient (298.15 K, 100 kPa) was 362 ± 33; the activity coefficient (303.15 K, 100 kPa) was 302 ± 27; the activity coefficient (308.15 K, 100 kPa) came out at 256 ± 23; the activity coefficient (313.15 K, 100 kPa) amounted to 218 ± 20; the activity coefficient (318.15 K, 100 kPa) was 181 ± 16; the activity coefficient (323.15 K, 100 kPa) worked out at 155 ± 14.
As for `O` [water] + COc1ccc(Br)cc1, the activity coefficient is, setting by setting: (298.15 K, 100 kPa) 119 ± 10; (303.15 K, 100 kPa) 106 ± 9.3; (308.15 K, 100 kPa) 93.7 ± 8.2; (313.15 K, 100 kPa) 83.3 ± 7.3; (318.15 K, 100 kPa) 74.1 ± 6.4; (323.15 K, 100 kPa) 65.5 ± 5.7.
For `O` [water] + ClC=C(Cl)Cl, the activity coefficient runs as follows: (278.15 K, 99 kPa) 1200 ± 130; (283.15 K, 99 kPa) 978 ± 100; (288.15 K, 99 kPa) 806 ± 84; (293.15 K, 99 kPa) 663 ± 69; (298.15 K, 99 kPa) 524 ± 54; (303.15 K, 99 kPa) 441 ± 45.
For `O` [water] + Clc1ccccc1, the activity coefficient was found to be 376 ± 34 (298.15 K, 100 kPa); 318 ± 29 (303.15 K, 100 kPa); 271 ± 24 (308.15 K, 100 kPa); 235 ± 21 (313.15 K, 100 kPa); 202 ± 18 (318.15 K, 100 kPa); 177 ± 16 (323.15 K, 100 kPa).
As to `O` [water] + Cc1ccccc1, the activity coefficient by setting is: (283.15 K, 100 kPa) 620 ± 57; (293.15 K, 100 kPa) 423 ± 39; (303.15 K, 100 kPa) 300 ± 27; (313.15 K, 100 kPa) 214 ± 19; (318.15 K, 100 kPa) 184 ± 16; (323.15 K, 100 kPa) 155 ± 14.
